Data published in US20070264661A1, “METHOD FOR RAPID IDENTIFICATION OF MOLECULES WITH FUNCTIONAL ACTIVITY TOWARDS BIOMOLECULAR TARGETS” (Isis Pharmaceuticals, Inc., priority 2003, published 2007).

What was measured:
[1] = system: 16S control construct (16Sc); assay: ESI-FTICR MS screening for noncovalent binding to the 16Sc control RNA construct; design: species or system E. coli
Description: (§1) Samples were brought to 0.1% heptafluorobutyric acid (HFBA) by the addition of 1% HFBA. A Gilson HPLC system consisting of four 306 pumps and a Gilson 215 liquid handler was used to perform the separations. Sample injection volume was 3 mL. Separation was carried out using a 250×10 mm Phenomenex Aqua C18 column, with a 50×10 mm guard column. Components were eluted using 0.1% HFBA and a gradient of 0 to 40% Acetonitrile (ACN) at a flow rate of 3 mL/min. over 45 minutes. 1 mL fractions were collected every 20 seconds and were assayed without further preparation.
RNA constructs 16S and 16Sc (FIG. 1A) were obtained from Dharmacon Research, Boulder, Colo. The 16Sc construct contains an 18-atom hexaethylene glycol chain attached to the 5′ terminus of the oligonucleotide as supplied by the manufacturer. The addition of this chain results in a net addition of C12H24O9 P (monoisotopic mass calc 344.1236) to the 16Sc oligonucleotide sequence shown in FIG. 1. The RNA was deprotected according to the manufacturer's directions and ethanol precipitated twice from 1 M ammonium acetate. […]
The presence of both a specific (16S) and non-specific (16Sc) RNA construct enables the simultaneous determination of binding specificity between target and ligand. In the absence of ligand, the initial peak intensity ratio of 16Sc/16S was determined to be 0.3 as shown in the control spectrum shown in FIG. 1B. […]

[2] = system: E. coli 16S ribosomal A-site (16S) 27-mer synthetic RNA construct; assay: ESI-FTICR MS screening for noncovalent binding to the 16S RNA construct
Description: as §1
RNA constructs 16S and 16Sc (FIG. 1A) were obtained from Dharmacon Research, Boulder, Colo. The 16Sc construct contains an 18-atom hexaethylene glycol chain attached to the 5′ terminus of the oligonucleotide as supplied by the manufacturer. The addition of this chain results in a net addition of C12H24O9 P (monoisotopic mass calc 344.1236) to the 16Sc oligonucleotide sequence shown in FIG. 1. The RNA was deprotected according to the manufacturer's directions and ethanol precipitated twice from 1 M ammonium acetate. Paromomycin (MW=615.2963 Da), was obtained from Sigma (St. Louis, Mo.) and ICN (Costa Mesa, Calif.).
The construct shown on the left in FIG. 1A (16S) is the 27-mer synthetic RNA containing the E. coli 16S ribosomal A-site (Purohit, P.; Stern, S. Nature 1994, 370, 659-662). Two positions in the E. coli 16S RNA are noted numerically as 1408 and 1492, referring to the location of these residues in the intact 16S rRNA. These positions have been previously shown to be critical for aminoglycoside recognition and binding (Griffey, R. H.; Hofstadler, S. A.; Sannes-Lowery, K. A.; Ecker, D. J.; Crooke, S. T. Proc. Natl. Acad. Sci. U. S. A. 1999, 96, 10129-10133; Fourmy, D.; Recht, M. I.; Blanchard, S. C.; Puglisi, J. D. Science (Washington, D.C.) 1996, 274, 1367-1371).
Mass spectrometry was performed on a modified Bruker Daltonics (Billerica, Mass.) Apex II 70e electrospray ionization Fourier transform ion cyclotron resonance mass spectrometer equipped with an actively shielded 7 tesla superconducting magnet. Experiments were performed with the source at room temperature, the skimmer potential was held at 0 volts, the capillary exit potential was −126 volts, and other experimental parameters were as described in detail elsewhere (Sannes-Lowery, K. A.; Drader, J. J.; Griffey, R. H.; Hofstadler, S. A. TrAC, Trends Anal. Chem. 2000, 19, 481-491). Binding reactions were comprised of 15 μl of a solution containing 2.5 μM 16S and 16Sc in 100 mM NH4OAc and 33% isopropyl alcohol and 2 μl of the LC fraction in a 96-well microtiter plate. […] The plates were vortexed briefly, and then incubated for 60 minutes at room temperature prior to analysis. Sample aliquots were injected directly from 96-well microtiter plates using a CTC HTS PAL autosampler (LEAP Technologies, Carrboro, N.C.).
The presence of both a specific (16S) and non-specific (16Sc) RNA construct enables the simultaneous determination of binding specificity between target and ligand. In the absence of ligand, the initial peak intensity ratio of 16Sc/16S was determined to be 0.3 as shown in the control spectrum shown in FIG. 1B. The peak intensity ration of 16Sc/16S should remain constant in the absence of ligand binding activity. If a ligand specifically binds the 16S RNA target, the peak intensity ratio of 16Sc/16S will […], while a ligand that binds non-specifically to both targets will not cause a significant change in the peak intensity ratio of 16Sc/16S. Thus, monitoring the 16Sc/16S peak intensity ratio is a convenient metric for characterizing binding specificity.

## NC[C@@H]1O[C@H](O[C@H]2[C@@H](O)[C@H](O[C@@H]3[C@@H](O)[C@H](N)C[C@H](N)[C@H]3O[C@H]3O[C@H](CO)[C@@H](O)[C@H](O)[C@H]3N)O[C@@H]2CO)[C@H](N)[C@@H](O)[C@@H]1O [paromomycin, Paromomycin]
[1]; fraction 146 (~54.7 minutes), FIG. 4
  abundance of the non-specific complex of 16Sc+paromomycin (relative to 16Sc): 13%
[1]; fraction #131, peak would be expected at m/z 1982.11
  binding to the 16Sc RNA (result in words): does not indicate a peak corresponding to paromomycin binding to the 16Sc RNA
[2]; 2.5 μM 16S and 16Sc, 100 mM NH4OAc, 33% isopropyl alcohol
  binding specificity 16S vs 16Sc (result in words): binding specifically to 16S RNA
[2]; fraction 146
  specificity for the 16S RNA target relative to the new molecule (59-fold vs. 5-fold): approximately 11 fold
[2]; fraction 146 (~54.7 minutes) of S. rimosus sp. paromomycinus broth, 5- charge state, FIG. 4
  abundance of the specific complex of 16S+paromomycin compared to 16S: 770%
[2]; fraction 146, ratio of complex abundances 16S vs 16Sc
  specificity of binding to the 16S RNA target over the 16Sc RNA construct: approximately 59 fold
[2]; fraction #131 (~49.5 minutes), baseline ratio without ligand 0.3
  peak intensity ratio of 16Sc/16S RNA: 0.79
[2]; peak of the paromomycin elution (e.g. fraction 138), data not shown
  number of paromomycin molecules binding to 16S and 16Sc RNA: one to four
